Key:
eIF5A = settings: during GC7 treatment; cited from earlier work
[1] = tested on: ZEB1 expression in MCF10CA1a cells; experiment: qPCR ZEB1 mRNA, TGFβ-induced EMT; assay type: cell-based, human; settings: GC7 10 μM pre-treatment, TGFβ 2.5 ng/mL 48 hours, fibronectin
From the text: The pathway in which the inventors are interested in targeting eIF5A is in the context of TGFβ-induced EMT and TGFβ is a well-characterized inducer of EMT. […] Phase-contrast images are shown to the right of the western blot to indicate a shift in morphology after treatment with TGFβ. […] Since TGFβ can induce PEAK1 upregulation, while in contrast, hypusinated eIF5A promotes PEAK1 translation, the inventors sought to see if TGFβ alone can upregulate hypusinated eIF5A. Post-translational modifications can occur relatively fast. Therefore short-term treatments of TGFβ on 4T1, 67NR and MCF10CA1a cells were performed initially. Protein lysates were collected after 10, 30 and 120 minutes of treatment and immunoblotted for hypusine, total eIF5A and β-actin (FIG. 4B). […] Relative band intensity is graphed to the right of the western blot in which the ratio between hypusine to total eIF5A is compared first between treated samples to control samples then a ratio is calculated comparing each time point relative to 10 minutes as a starting time point of reference. […] The inventors were also interested in what genes were altered at the transcriptional level when dual treating with TGFβ and GC7 at the same time to block EMT. […]

[2] = tested on: 4T1, 67NR, MCF10AT1k, MCF10CA1h and MCF10CA1a; experiment: Cell viability at 100 μM GC7, phase-contrast imaging across cell lines; assay type: cell-based, mouse, human; settings: 100 μM GC7, 48 hours
Experimental: There are currently two drugs available that can target the activation of eIF5A. Its role of hypusination/activation is spermidine dependent and is carried out in two subsequent steps by the enzymes deoxyhypusine synthase (DHPS) catalyzing the first step and deoxyhypusine hydroxylase (DOHH) catalyzing the second step. The efficacy and potency of the two drugs in the selected cell lines; GC7 (N1-Guanyl-1,7-diaminoheptane)—a selective inhibitor of DHPS, and CPX (Ciclopirox olomine)—which chelates iron that is important for the activity of DOHH (FIG. 2A) are shown. The concentration that determines a 50% decrease in cell viability is noted by the IC50 values on each graph for each drug. These cells were imaged when treated with the second highest concentration of GC7 at 100 μM to show a decrease in cell viability after 48 hours of treatment (FIG. 2B). […] From this point forward, all experiments performed used only GC7 as the selected drug to target hypusinated eIF5A.
The inventors sought to determine if the decrease in cell viability is due to the inhibition of post translational modification of eIF5A. To test this, all cell lines were treated with GC7 at 100 μM for 48 hours—which were the time point and concentration at which a decrease in cell viability was seen (FIG. 2B). […]

[3] = tested on: human triple negative breast cancer cells; experiment: Cell proliferation assay and hypusine western blot, response to GC7; assay type: cell-based; settings: FIGS. 2A and 3A
Experimental: Cell lines were plated in a 6 well plate at 1e5 cells/mL and left to attach overnight. Cells were then treated if necessary then lysed using Radioimmunoprecipitation assay (RIPA) buffer containing phosphatase and protease inhibitors and left to rotate at 4° C. for at least 3 hours. Lysates were then cleared by centrifugation at 12,000 RPM for 10 minutes at 4° C. Protein concentrations were determined using Bradford Assay. 4-12% Bis-Tris […] gels were used to run protein lysates at 20 μg of protein that were stained with NuPage LDS Sample Buffer. Gels were then transferred onto nitrocellulose membranes and exposed to primary antibody solutions at the following concentrations for each indicated antibody. PEAK1 (Millipore 1:400), E-cadherin (Cell Signaling 1:1,000), Hypusine (Thermo Scientific 1:1,000), eIF5A (Thermo Scientific 1:1,000) and β-actin (Pro-Sci 1:1,000). Secondary antibodies were used at a 1:5,000-1:10,000 dilution. Band intensity graphs were quantified using Fiji software after image thresholding.
The CellTiter 96® AQueous One Solution (Promega) was used to perform cell proliferation experiments. Cells were plated at 5e3 cells/mL at 200 μL/well in a 96-well plate and allowed to attach overnight. […] Absorbance readings were measured at 490 nm wavelength at 1.5, 2 and 3 hours (absorbance is directly proportional to the number of living cells).

N=C(N)NCCCCCCCN.O=S(=O)(O)O [GC7, N1-Guanyl-1,7-diaminoheptane]
FOXP3+ regulatory T cells at the site of the tumor (eIF5A): significantly increased | pancreatic and splenic CD8+ lymphocytes (eIF5A): did not seem to be affected | recruitment of CD4+ T cells at the site of the tumor (eIF5A): significantly decrease | TGFβ-induced EMT (ZEB1 mRNA) [1]: this EMT was blocked | decrease in cell viability [2]: largest decrease in cell viability | sensitivity to GC7 treatment [3]: insensitive

Source: patent publication US20190216751A1, “Compositions and Methods for the Treatment and Prevention of Cancer” (California State University Northridge, priority 2017, published 2019)
